# Laboratory results published in patent publication US20260191863A1, “PYRROLOPYRIMIDINE COMPOSITIONS FOR TREATMENT OF ITK MEDIATED CONDITIONS” (ACLARIS THERAPEUTICS, INC., priority 2022, published 2026).
# Several values for one entry are separate records, joined by “and”; a condition that tells them apart may be missing. Equal values may be shown once. Read-outs that look alike come from different tables or passages of the source.
# Experiments:
# JAK1/2 = test: Cell IC50 JAK1/2 hPBMC IFNγ/pSTAT1; format: cell-based, human
# JAK3 (pSTAT5, lymph) [1] = test: Pre-clinical human whole blood IL-2/pSTAT5 (20 min), lymphocytes; format: cell-based; settings: for EC50: Homo sapiens, Lymphocyte
# [2] = Phase 1 MAD study: safety and tolerability; format: in vivo, human; settings: for AE of Special Interest (events) / AEs (events) / ≥Grade 2 (events): 14 days
# Description: Primary Endpoints—Number and percent of adverse events (AEs) and serious adverse events (SAEs); mean change from baseline in laboratory values, vital signs, and electrocardiograms (ECGs).
# Overall Design—This was a randomized, Investigator and participant-blind. Sponsor-unblinded, placebo-controlled study designed to evaluate the safety, tolerability, PK, and PD of Compound I in healthy participants. The study consisted of multiple cohorts assessing ascending doses of Compound I.
# Approximately 60 participants were enrolled into 5 cohorts. At each dose level/cohort, a total of 10 participants were randomized to receive 2 weeks of oral doses of Compound I (n=8) or placebo (n=2). In Cohort 3, 20 participants were randomized to receive multiple oral doses of Compound I QD (n=8), Compound I TID (n=8), placebo QD (n=2), or placebo TID (n=2).
# The study started with a planned dose of 5 mg twice daily (BID). Escalation to the next higher cohort was dependent on safety and PK data from all participants in the previous cohorts and was based on data from at least 6 participants up to at least 48 hours after the last dose. In no instance did the dose escalation steps exceed 3-fold the prior dose level.
# ITK = target: T1, ITK (Homo sapiens, UniProt Q08881); test: Cell IC50 ITK (Jurkat/pPLCγ1); format: cell-based
# T1 construct: (Jurkat/pPLCγ1); endogenous in cells; host or cells: Jurkat
# T1 sequence (Q08881 1-620): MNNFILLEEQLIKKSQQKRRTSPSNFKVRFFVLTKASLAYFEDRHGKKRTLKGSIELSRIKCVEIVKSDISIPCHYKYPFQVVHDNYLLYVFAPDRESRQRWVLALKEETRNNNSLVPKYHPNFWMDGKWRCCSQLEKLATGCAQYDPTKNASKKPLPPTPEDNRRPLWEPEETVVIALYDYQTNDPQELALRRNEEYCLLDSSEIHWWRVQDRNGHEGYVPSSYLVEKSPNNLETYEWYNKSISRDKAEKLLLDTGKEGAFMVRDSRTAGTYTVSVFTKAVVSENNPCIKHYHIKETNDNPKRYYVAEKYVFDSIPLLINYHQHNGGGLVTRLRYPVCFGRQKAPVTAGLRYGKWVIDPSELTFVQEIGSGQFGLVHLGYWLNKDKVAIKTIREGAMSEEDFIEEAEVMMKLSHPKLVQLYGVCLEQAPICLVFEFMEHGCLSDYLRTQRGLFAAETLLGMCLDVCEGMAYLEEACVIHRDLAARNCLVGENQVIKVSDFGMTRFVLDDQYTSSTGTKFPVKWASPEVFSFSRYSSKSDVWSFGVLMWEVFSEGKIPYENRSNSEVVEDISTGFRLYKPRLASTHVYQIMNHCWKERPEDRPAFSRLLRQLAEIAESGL
# [3] = tested on: αCD3 & IL15 stimulated IFNγ protein; test: MAD ex vivo PD: αCD3 & IL15 stimulated IFNγ protein; format: in vivo, human
# Description: (§1) Exploratory Endpoints—Mean change from baseline in cellular, extracellular (secreted), and/or message markers of inflammation.
# (§2) EC50 and IC50 data for αCD3 & αCD28 stimulated IL2mRNA, IL15 stimulated IFNγ protein, and αCD3 & IL15 stimulated IFNγ protein is shown in table 9.
# JAK3 (pSTAT5, CD3+ T) = test: Pre-clinical IL2 stimulated pSTAT5 in CD3+ T cells; format: cell-based; settings: Homo sapiens, T-cell
# [4] = tested on: colitis (mouse T cell transfer model); test: Mouse T cell transfer model of inflammatory bowel disease; format: in vivo
# Description: The study evaluated Compound I dose dependent ability to inhibit inflammation in the mouse T cell transfer model of inflammatory bowel disease.
# experimental colitis = test: Mouse colitis model vs ritlecitinib and tofacitinib, histological damage; format: in vivo; settings: proximal/distal colon and ileum
# Experimental: […] experimental colitis data-Histological damage was evaluated for the proximal/distal colon and ileum. Representative data shown here is from the distal colon-across all three regions of GI tissues analyzed.
# [5] = tested on: IL15 stimulated IFNγ protein; test: Pre-clinical human whole blood IL-15/IFNγ (5 hr); format: cell-based
# [6] = tested on: αCD3 & αCD28 stimulated IL2mRNA; test: MAD ex vivo PD: αCD3 & αCD28 stimulated IL2 mRNA; format: in vivo; settings: Homo sapiens
# Description: as §1, §2
# ITK and JAK3 = test: SAD exploratory PD, all biomarker readouts; format: in vivo, human
# Experimental: (§3) Secondary Endpoints—Compound I plasma concentrations. Mean change from baseline in ex vivo stimulated pSTAT5 and pSTAT1 (signal transducer and activator of transcription); and in ex vivo stimulated IFNγ mRNA (interferon gamma messenger ribonucleic acid).
# Results: Sixty-three subjects completed the SAD study. […] Peak concentrations were reached within 2 hours after dosing.
# JAK3 (pSTAT5, lymph) [7] = test: SAD ex vivo PD: IL2 stimulated pSTAT5 in lymphocytes; settings: Homo sapiens, Lymphocyte; SAD study; read-out: Clinical EC50
# Description: as §3
# Summary of SAD data: FIGS. 4-8 and 9-13 show the SAD dose response, SAD exposure response, and SAD calculated response at Cmax by dose respectively for ITK (IL2 mRNA), ITK (IFNγ mRNA), JAK3 (pSTAT5, lymph), JAK3 (pSTAT5, CD3′ T), and ITK & JAK (IFNγ protein). Clinical and pre-clinical IC50 data for ITK (IL2 mRNA), ITK (IFNγ mRNA), JAK3 (pSTAT5, lymph), JAK3 (pSTAT5, CD3^+ T), and ITK & JAK (IFNγ protein) from the SAD study is shown in table 4.
structure (smiles),measurement,setting,value
"C=CC(=O)N1C[C@H](Nc2ncnc3[nH]cc([C@H]4CC4(F)F)c23)CC[C@@H]1C [Compound I, 1-((2S,5R)-5-((5-((R)-2,2-difluorocyclopropyl)-7H-pyrrolo[2,3-d]pyrimidin-4-yl)amino)-2-methylpiperidin-1-yl)prop-2-en-1-one]","Cell IC50, JAK1/2 hPBMC IFNγ/pSTAT1",JAK1/2,Inactive
same,"Potency relative to Ritlecitinib, IL-2/pSTAT5 (20 min)","JAK3 (pSTAT5, lymph) [1]",(1.2 fold*)
same,EC50,"JAK3 (pSTAT5, lymph) [1]; 20 min, read-out: Human Whole Blood EC50, IL-2/pSTAT5 (20 min)",0.136 µM
same,EC50,"JAK3 (pSTAT5, lymph) [1]; read-out: Pre-clinical EC50",0.136 ± 0.0512 µM
same,"Deaths, serious AEs, discontinuations due to AEs",[2]; MAD,"no deaths, serious AEs, or discontinuations due to AEs"
same,Safety and tolerability conclusion,[2]; MAD,safe and well tolerated
same,Notable events: single episode of transient diarrhea,[2]; MAD 5 mg BID,2 subjects
same,Notable events: single dermatomal zoster rash 1 week after dosing ended,[2]; MAD 40 mg BID,1 subject
same,AE of Special Interest (events),[2]; MAD cohort 5 mg BID,3
same,AEs (events),[2]; MAD cohort 5 mg BID,9
same,≥Grade 2 (events),[2]; MAD cohort 5 mg BID,1
same,AE of Special Interest (events),[2]; MAD cohort 10 mg TID,0
same,AEs (events),[2]; MAD cohort 10 mg TID,3
same,≥Grade 2 (events),[2]; MAD cohort 10 mg TID,0
same,AE of Special Interest (events),[2]; MAD cohort 15 mg BID,0
same,AEs (events),[2]; MAD cohort 15 mg BID,0
same,≥Grade 2 (events),[2]; MAD cohort 15 mg BID,0
same,AE of Special Interest (events),[2]; MAD cohort 25 mg BID,1
same,AEs (events),[2]; MAD cohort 25 mg BID,4
same,≥Grade 2 (events),[2]; MAD cohort 25 mg BID,0
same,AE of Special Interest (events),[2]; MAD cohort 30 mg QD,0
same,AEs (events),[2]; MAD cohort 30 mg QD,3
same,≥Grade 2 (events),[2]; MAD cohort 30 mg QD,0
same,AE of Special Interest (events),[2]; MAD cohort 40 mg BID,1
same,AEs (events),[2]; MAD cohort 40 mg BID,4
same,≥Grade 2 (events),[2]; MAD cohort 40 mg BID,1
same,Safety and tolerability,"[2]; MAD, up to 2 weeks administration in HV",safe and tolerable
same,Potency on ITK relative to ritlecitinib,ITK,~ 100 ×
same,"Potency relative to Ritlecitinib, ITK (Jurkat/pPLCγ1)",ITK,81 fold
same,"T cell receptor blockade, Compound I vs CsA",ITK,equipotent
same,IC50,"ITK; Jurkat, pPLCγ1",0.008 µM
same,Selectivity for ITK (over JAK3),ITK; cell IC50 ITK vs JAK3,3 fold
same,EC50,"[3]; Homo sapiens, read-out: MAD EC50",0.0041 µg/mL and 11.4 nM
same,EC50,"[3]; human whole blood dual stimulation, read-out: Human Compound I Cp to reach HWB dual stim EC50 (MAD PD data)",≥ 3.47 ng/mL
same,EC50,"JAK3 (pSTAT5, CD3+ T)",0.14 ± 0.0493 µM
same,Colitis,[4],inhibited colitis
same,Effect compared with anti-IL12 (P40),[4],The effect was greater than anti-IL12 (P40)
same,"Inflammation in proximal and distal colon, and ileum",[4],dose dependently decreased inflammation
same,Protection from histological damage vs comparator drugs,experimental colitis,more protective than both comparator drugs
same,"Potency relative to Ritlecitinib, IL-15/IFNγ (5 hr)",[5],(6.5 fold*)
same,IC50,[5]; Homo sapiens,0.0029 µg/mL and 8 nM
same,EC50,"[5]; Homo sapiens, 5 h, read-out: Human Whole Blood EC50, IL-15/IFNγ (5 hr)",0.008 µM
same,EC50,[6],0.0019 µg/mL and 5.3 nM
same,Modulation of all PD biomarker readouts,ITK and JAK3,dose- and time-dependent modulation
same,PD markers of ITK (αCD3/αCD28 induced IL2 and IFNγ mRNA) and JAK3 (IL2 induced pSTAT5) activation,ITK and JAK3,dose-dependently inhibited
same,Inhibition of biomarker readouts,"ITK and JAK3; 2 hours post treatment, doses of 15 mg to 80 mg",Near-complete inhibition
same,EC50,"JAK3 (pSTAT5, lymph) [7]",0.137 µM
